Assay results: US8512961B2, “Methods of detecting and treatment of cancers using Scutellaria barbata extract” (Bionovo, Inc., priority 2007, dated 2013)

Assays:
DNA = DNA damage, comet formation; type: cell-based; conditions: for effect on comet formation induced by BZL101: cells pretreated prior to the addition of BZL101
Text: There is a different fold increase of ROS levels in different cells treated with BZL101 compared to control untreated cells. It is of particular interest that the increase in ROS correlates well with the degree of DNA damage induced in these cells.
To further implicate ROS in the induction of DNA damage, comet formation in cells pretreated with the antioxidants NAC and pyruvate prior to the addition of BZL101 were examined.

ROS = ROS generation, staining with ROS-sensitive probe CM-H2DCFDA; type: cell-based; conditions: incubation of cells prior to addition of BZL101; SKBr3 cells
SKBr3 cells = experiment: 8-oxoguanine, flow cytometry with avidin fluorescein; type: cell-based, human; conditions: cells pretreated prior to addition of BZL101
Description: To verify that BZL101 leads to oxidative DNA damage, it was determined whether the DNA of BZL101-treated cells contains 8-oxoguanine, the most ubiquitous marker of DNA oxidation. […] (See FIG. 9). […] (See FIG. 10). Analysis of the 8-oxoguanidine and apurininc/apyrimidinic (AP) bases in DNA. The Calbiochem kit was used for staining of the fixed and permeabilized cells with avidin fluorescein. Quantification of apurinic/[…] nucleotides in genomic DNA was performed using the DNA damage quantification kit from BioVision Research Products.

Compound | effect on comet formation induced by BZL101 (DNA) | DNA damage repair in cancer cells (DNA; in the presence of the antioxidant, BZL101-treated cancer cells) | effect on BZL101-induced ROS generation (ROS) | effect on BZL101-induced increase in avidin binding (8-oxoguanine) (SKBr3 cells)
CC(=O)N[C@@H](CS)C(=O)O [NAC, N-acetyl-cysteine] | significantly reduced the number of cells forming comets | greatly accelerated | prevented most of the increase in ROS generation | completely abolished
CC1(C)N([O])C(c2ccccc2)=[N+]([O-])C1(C)C [PTIO] | no effect |  |  | 
